From ChEMBL document CHEMBL4152331, “Thiodipeptides targeting the intestinal oligopeptide transporter as a general approach to improving oral drug delivery” (Eur J Med Chem, 2018)
Each block holds one molecule with its values, some of them ahead of it.

Key:
PepT1 = target: T1, PepT1 (Homo sapiens, UniProt P46059); experiment: Substrate activity at PepT1 in human Caco2 cells assessed as apparent permeability form apical to basolateral side at 2 mM in presence of Gly-Gln after 1 hr by HPLC analysis; details: Caco-2, with Gly-Gln
T1 sequence (P46059 whole entry): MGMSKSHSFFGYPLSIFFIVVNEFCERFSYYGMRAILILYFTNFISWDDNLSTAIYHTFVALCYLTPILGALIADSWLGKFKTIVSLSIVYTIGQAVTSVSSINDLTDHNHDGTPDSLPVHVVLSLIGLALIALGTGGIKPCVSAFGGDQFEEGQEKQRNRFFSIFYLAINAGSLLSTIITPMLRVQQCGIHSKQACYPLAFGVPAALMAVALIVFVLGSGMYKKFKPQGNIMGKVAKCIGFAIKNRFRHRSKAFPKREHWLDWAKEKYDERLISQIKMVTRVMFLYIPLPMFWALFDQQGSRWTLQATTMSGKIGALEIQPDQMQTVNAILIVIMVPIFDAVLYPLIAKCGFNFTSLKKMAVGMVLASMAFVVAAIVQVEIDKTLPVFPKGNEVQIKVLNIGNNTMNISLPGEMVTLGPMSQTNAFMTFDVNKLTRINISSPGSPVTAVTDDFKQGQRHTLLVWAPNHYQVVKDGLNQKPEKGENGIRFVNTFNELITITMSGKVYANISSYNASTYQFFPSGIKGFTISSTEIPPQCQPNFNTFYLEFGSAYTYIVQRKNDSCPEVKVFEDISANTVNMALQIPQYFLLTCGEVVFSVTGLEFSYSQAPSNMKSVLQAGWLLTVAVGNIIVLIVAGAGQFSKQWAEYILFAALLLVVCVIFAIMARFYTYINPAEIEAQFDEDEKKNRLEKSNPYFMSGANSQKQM

[1] = Stability of the compound in pH 5.5 buffer; format: physicochemical
[2] = target: T2, Solute carrier family 15 member 1 (Oryctolagus cuniculus, UniProt P36836); experiment: Binding affinity to rabbit PepT1 expressed in Xenopus laevis oocytes assessed as inhibition of [3H]-D-Phe-L-Gln uptake by Michaelis-Menten kinetics analysis; format: ADME, cell-based
T2 sequence (P36836 whole entry): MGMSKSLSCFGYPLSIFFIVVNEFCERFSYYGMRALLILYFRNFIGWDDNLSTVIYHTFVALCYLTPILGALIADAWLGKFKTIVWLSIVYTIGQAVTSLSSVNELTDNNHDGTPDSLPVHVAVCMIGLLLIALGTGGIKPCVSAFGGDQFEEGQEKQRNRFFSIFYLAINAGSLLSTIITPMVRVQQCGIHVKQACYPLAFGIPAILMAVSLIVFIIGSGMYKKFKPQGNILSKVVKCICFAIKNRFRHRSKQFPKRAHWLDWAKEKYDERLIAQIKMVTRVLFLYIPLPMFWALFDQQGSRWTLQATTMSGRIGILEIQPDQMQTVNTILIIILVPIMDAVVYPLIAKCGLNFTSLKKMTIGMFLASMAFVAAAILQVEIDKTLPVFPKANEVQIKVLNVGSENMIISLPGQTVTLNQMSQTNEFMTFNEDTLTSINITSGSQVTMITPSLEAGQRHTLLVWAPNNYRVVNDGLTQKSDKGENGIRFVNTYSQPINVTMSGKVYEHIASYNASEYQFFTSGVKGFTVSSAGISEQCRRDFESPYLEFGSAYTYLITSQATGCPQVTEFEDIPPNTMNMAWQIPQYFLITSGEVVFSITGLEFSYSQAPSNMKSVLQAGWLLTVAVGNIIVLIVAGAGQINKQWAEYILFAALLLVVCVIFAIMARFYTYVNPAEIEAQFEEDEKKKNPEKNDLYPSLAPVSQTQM

[3] = Half life in rat liver homogenate at 0.5 mM after 24 hrs by HPLC analysis; format: ADME, tissue-based
Rattus norvegicus [4] = experiment: Tmax in Sprague-Dawley rat assessed as ibuprofen release level at 10 mg/kg, po by LC-MS/MS analysis; details: in vivo
Rattus norvegicus [5] = experiment: Cmax in Sprague-Dawley rat assessed as ibuprofen release level at 10 mg/kg, po by LC-MS/MS analysis; details: in vivo
Rattus norvegicus [6] = experiment: Relative bioavailability in Sprague-Dawley rat assessed as ibuprofen release level at 10 mg/kg, po by LC-MS/MS analysis; details: in vivo
Caco-2 = experiment: Ratio of apparent permeability of FSA to compound in human Caco2 cells from apical to basolateral side at 2 mM after 1 hr by HPLC analysis; details: caco-2, 1 h, 2000 µM
[7] = target: T3, Solute carrier family 15 member 1 (Homo sapiens, UniProt P46059); experiment: Ratio of substrate activity of FSA to compound at PepT1 in human Caco2 cells assessed as apparent permeability form apical to basolateral side at 2 mM in presence of Gly-Gln after 1 hr by HPLC analysis; details: caco-2, 1 h, 2000 µM
T3 sequence (P46059 whole entry): T1 sequence (P46059 whole entry)

Rattus norvegicus [8] = experiment: AUC in Sprague-Dawley rat assessed as ibuprofen release level at 10 mg/kg, po by LC-MS/MS analysis; details: in vivo
Rattus norvegicus [9] = experiment: Bioavailability in Sprague-Dawley rat at 6 mg/kg, po by LC-MS/MS analysis; details: in vivo
[10] = Apparent permeability of the compound in human Caco2 cells from apical to basolateral side at 2 mM after 1 hr by HPLC analysis; details: Caco-2

SMILES: C[C@H](N)C(=S)N[C@@H](CC(=O)OCCOCn1cnc2c(=O)[nH]c(N)nc21)C(=O)O
Stability [1]: Unstable
Ki [2]: Nd(Unstable)

SMILES: CC(=O)Oc1ccccc1C(=O)OCCOCCOCCOC(=O)C[C@H](NC(=S)[C@H](C)N)C(=O)O
Stability [1]: Unstable
Ki [2]: Nd(Unstable)

SMILES: COc1ccc2cc(CC/C(C)=N/OCCOC(=O)C[C@H](NC(=S)[C@H](C)N)C(=O)O)ccc2c1
Papp A→B at 1 h, 2000 µM [10]: 9.7 ×10⁻⁶ cm/s
Papp A→B at 1 h, 2000 µM (PepT1): 4.4 ×10⁻⁶ cm/s
Ratio (Caco-2): 1.94
Ki ([2]; read-out: Ki): 80 µM
Ratio [7]: 1.3

SMILES: C[C@H](N)C(=S)N[C@@H](COC(=O)CC1(CN)CCCCC1)C(=O)O
Papp A→B at 1 h, 2000 µM (PepT1): 0.4 ×10⁻⁶ cm/s
Ratio (Caco-2): 0.46
Ratio [7]: 0.69

Now from value to molecule:

Papp A→B at 1 h, 2000 µM (PepT1): 1.9 ×10⁻⁶ cm/s
SMILES: C[C@H](NC(=O)[C@@H](N)Cc1ccccc1)C(N)=S

half-life at 500 µM [3]: 17.9 h
Tmax (Rattus norvegicus [4]): 3.2 h
Cmax (Rattus norvegicus [5]): 200 ng/mL
F (Rattus norvegicus [6]): 2.8%
Papp A→B at 1 h, 2000 µM (PepT1): 2.1 ×10⁻⁶ cm/s
Ratio (Caco-2): 1.29
Ratio [7]: 1.07
AUC (Rattus norvegicus [8]): 700 ng·h/mL
SMILES: CC(C)Cc1ccc([C@@H](C)C(=O)OC[C@H](NC(=S)[C@H](C)N)C(=O)O)cc1

F (Rattus norvegicus [9]): 100%
SMILES: CC(C)Cc1ccc(C(C)C(=O)O)cc1 (configuration not stated) [IBUPROFEN]

half-life at 500 µM [3]: 7.3 h
Papp A→B at 1 h, 2000 µM [10]: 0.5 ×10⁻⁶ cm/s
Papp A→B at 1 h, 2000 µM (PepT1): 0.5 ×10⁻⁶ cm/s
Ratio (Caco-2): 0.41
Ratio [7]: 0.89
SMILES: CC(C)c1cccc(C(C)C)c1OC(=O)C[C@H](NC(=S)[C@H](C)N)C(=O)O
